The nature of data set [1]: Solubility in phosphate buffer (pH 7.4). Format: physicochemical. The protocol: (i) Solubility in phosphate buffer (pH 7.4). For calibration, approximately 2 mg of GE81112A was weighed into a HPLC glass vial. DMSO was added to reach a target concentration of 2 mg/mL. Dilutions for calibration (10 μg/mL, 50 μg/mL, and 100 μg/mL) were prepared by adding adjusted volumes of DMSO and were correlated with ultraperformance liquid chromatography (UPLC)-UV peak areas at 220 nm. For solubility determinations, 2 mg of GE81112A was weighed into a HPLC glass vial. Phosphate buffer (pH 7.4) was added to reach a target concentration of 2 mg/mL. The vial was shaken for 16 h at 25°C, with protection from light, on an Eppendorf thermomixer at 600 rpm, followed by centrifugation at 10,000 rpm for 5 min at 25°C and filtration through a 0.45-μm filter. The filtrated supernatant was analyzed (UPLC-UV, λ = 220 nm), and the concentration of the analyte in the filtrate was calculated based on the peak area/real concentration ratio from previous calibration runs.

Data set [2] is described as follows: Hepatic in vitro CLint in primary plated hepatocytes. Format: in vitro ADME, human. As for the experimental part:
For hepatic in vitro CLint studies, primary cultures of cryopreserved human or animal species hepatocytes were seeded at a density of 200,000 cells per well and cultured overnight in collagen-coated 48-well plates in modified Ham’s F-12/William’s E medium. Disappearance kinetics of 5 μM GE81112A were sampled over a 24-h period. Dextromethorphan, midazolam, phenacetin, and tolbutamide (5 μM each) were used as reference compounds. Acetonitrile was used to terminate the incubation, and samples were centrifuged at 2,000 × g for 10 min after the addition of an appropriate internal standard. Supernatants were separated by LC using an AERIS peptide XB-C18 column (3.6 μm, 50 by 2.1 mm; Phenomenex, Aschaffenburg, Germany) with the following gradient of buffer A (water) and buffer B (acetonitrile): 0 to 5 min, 95% buffer A; 20 to 25 min, 5% buffer A. Both solvents were supplemented with 0.1% formic acid. The remaining parent peptide was quantified by LC-MS/MS using a Q Exactive hybrid quadrupole-Orbitrap device (Thermo Fisher Scientific). In vitro hepatic CLint was calculated as dose/area under the concentration-time curve from 0 to 24 h (AUC0–24), where dose is the concentration of GE81112A determined in the time zero sample and classified using reference compounds for low, moderate, or high CLint.

In data set [3] the test system is Salmonella enterica serovar Typhimurium. In words: Ames II test. It counts as cell-based. As to conditions: with and without S9. As for the experimental part: The test was carried out with and without metabolic activation by S9 liver homogenate from rats that had been pretreated with Arcolor, S9 mix. The Salmonella enterica serovar Typhimurium tester strains included the mixed strains TA7001 to TA7006 for detection of base pair substitutions and TA98 for detection of frameshift mutations ([18]). Bacterial cultures (from frozen stocks) were grown overnight and tested for genotype conformation. Test compound diluted in DMSO was tested at 16, 50, 160, 500, 1,600, and 5,000 μg/mL with each strain, both in the presence and in the absence of the exogenous hepatic microsomal fraction (S9) from Aroclor 1254-treated rats (obtained as described above). […] Then, 2.8 mL of a pH indicator solution (Merck KGaA, Darmstadt, Germany) (bromocresol purple) containing trace amounts of histidine and biotin (ready-to-use commercial solution) was added to each well, and all samples were then transferred into a 384-well plate. […] Toxicity was assessed by evaluating the density of growth of the background lawn of bacteria. Mutagenicity was assessed by counting the number of wells with color changes (purple or yellow) or the number of easily visible colonies (revertants).
A general note: The Ames test uses bacterial strains that need an amino acid and regain growth without it when mutated back.

Data set [4] can be described thus: PK in mice after a single i.v. administration. Format: in vivo, male Swiss mice. To be noted: 10 mg/kg i.v. As for the experimental part: In order to determine the PK parameters of GE81112A, a single i.v. dose of 10 mg/kg in solution was administered to male Swiss mice, and plasma, urine, and tissue concentrations were monitored over 24 h (Fig. 2). After i.v. dosing, the different parameters were investigated in more detail. A high distribution of GE81112A in the kidney points toward its excretion via urine. Therefore, urinary tract infections (UTIs) represent the most probable scope of application (Table 2).
Plasma, urine, and tissue concentrations and PK parameters for GE81112 were assessed after a single i.v. administration of a 10-mg/kg solution to male Swiss mice. Briefly, 5 mL/kg of a 2-mg/mL solution of GE81112A was administered i.v. to fed male Swiss mice (weight of 20 g, obtained from Janvier; n = 24 mice). Samples were collected at 0.08, 0.25, 0.5, 1, 2, 4, 8, and 24 h postadministration for bioanalysis. Bioanalytical samples (plasma, urine, and tissue) were analyzed for the concentration of GE81112 using an exploratory LC-MS/MS method, and PK parameters were estimated using the PK software Phoenix WinNonlin v6.4, using a noncompartmental model and a linear trapezoidal interpolation calculation. The studies were ethically approved by the German governmental authority (protocol number FH/2002; Regierungspräsidium Darmstadt).

Several values for one entry are separate records, joined by “and”; a condition that tells them apart may be missing. Identical values can stand only once. Some results are limits rather than exact numbers.

In turn, `NC(=O)OC[C@@H](O)C[C@H](NC(=O)[C@H]1NCCC[C@H]1O)C(=O)N[C@@H](Cc1c[nH]cn1)C(=O)N[C@H](C(=O)O)[C@H](O)c1cnc(Cl)[nH]1` [GE81112A] returned a solubility at 16 h in data set [1] of over 500 µg/mL. In data set [2] (5 μM, classified as low), the “Intrinsic clearance (CLint)” value is reported as 0.01 mL/(h × 1 million cells). Besides, the “Directly glucuronic acid-conjugated metabolites” value in data set [2] (human primary plated hepatocytes) is “not observed”. The Mutagenicity result in data set [3] is listed as “no mutagenicity”. For the same compound, in data set [4], the “Tissue/plasma ratio, kidney” value turned out to be 3.00; the “Tissue/plasma ratio, liver” value was 20 and 20.6; the “Tissue/plasma ratio, lung” value is recorded as 0.515. Further, the “Proportion of dose recovered in urine” value in data set [4] (over 24 h) was 30%. In data set [4] (male, Swiss, mouse, in vivo, iv), this compound showed a clearance of 12.2 mL/min/kg. For the same compound, in data set [4] (male, Swiss, mouse, in vivo, iv, read-out: Volume of distribution), the Vd stood at 0.321 L/kg. For the same compound, in data set [4] (male, Swiss, mouse, plasma, iv), the half-life is 270 min. Also, the dose excreted in data set [4] (male, Swiss, mouse, urine, iv, over 24 h, read-out: Proportion of dose recovered in urine) was 30%.

By solubility is commonly meant the dissolved amount per volume that the medium holds. A low value points to little dissolved substance. One may read the clearance as the rate of elimination divided by the concentration. A lower clearance goes with inefficient removal. As usually defined, the half-life is the time in which the quantity being followed falls by half. Read a high half-life as slow decline.

For the origin of these results see paper PMC10269895 (Microbiology Spectrum, 2023).
